According to BindingDB's records for patent US12065430 (Taiho Pharmaceutical, 2024):

Target: T1, Son of sevenless homolog 1 [564-1049]/GTPase KRas [G12C] (UniProt P01116+Q07889, G12C)
T1 construct: 564-1049
Assay: Evaluation of Inhibitory Activity of Compounds on KRAS G12C Nucleotide (GDP-GTP) Exchange Reaction
Protocol: The inhibitory activity of compounds on exchange reaction of GDP into GppNHp in Bodipy (trademark) FL-bound KRAS G12C was examined by fluorescence measurement using human recombinant KRAS G12C and SOS1 proteins.For the preparation of KRAS G12C to which Bodipy FL GDP was bound, first, […] KRAS G12C (amino acid region: 1-169) and 1 mM Bodipy FL GDP (Invitrogen, G22360) were incubated for 1 hour in a buffer (20 mM Tris-HCl (pH 7.5), 50 mM NaCl, 1 mM DTT) in ice in the presence of 2.5 mM EDTA. Thereafter, MgCl2 with a final concentration of 10 mM was added, and the mixture was incubated at room temperature for 30 minutes. The protein was allowed to pass through a NAP-5 column to remove free nucleotides and was used for compound evaluation.For the measurement of the inhibitory activity of compounds on nucleotide exchange reaction, first, the compound of the present invention was diluted stepwise with dimethyl sulfoxide (DMSO). Subsequently, a solution of the gradually diluted compound of the present invention in DMSO (the final concentration of DMSO: 5%) and KRAS G12C (25 nM) bound to Bodipy FL GDP were added to a reaction buffer (20 mM Tris-HCl (pH 7.5), 100 mM NaCl, 1 mM MgCl2, 2 mM DTT, 0.1% Tween20), followed by preincubation at 25° C. for 4 hours. Thereafter, Son of Sevenless Homolog 1 (SOS1, amino acid region: 564-1049) and GppNHp (GMPPNP, Jena Bioscience GmbH, NU-401-50) were added such that their final concentration was 100 nM and 1 μM respectively, followed by reaction for 30 minutes. The change in fluorescence intensity of Bodipy FL (excitation wavelength: 485 nm, fluorescence wavelength: 520 nm) immediately after the start of reaction and after 30 minutes from the start of reaction was standardized. The signal value for only DMSO was determined to be 0% inhibition, and the signal value for no addition of GppNHp was determined to be 100% inhibition. The compound concentration at which 50% inhibition is achieved was determined to be IC50 (nM), and was calculated.

T1 sequence (P01116 whole entry G12C): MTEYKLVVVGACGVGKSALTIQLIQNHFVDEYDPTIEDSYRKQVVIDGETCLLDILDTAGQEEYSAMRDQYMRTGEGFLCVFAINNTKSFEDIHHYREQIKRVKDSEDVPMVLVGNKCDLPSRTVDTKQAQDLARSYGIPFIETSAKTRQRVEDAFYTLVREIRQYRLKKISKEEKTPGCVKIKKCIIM
T1 sequence (Q07889 564-1049): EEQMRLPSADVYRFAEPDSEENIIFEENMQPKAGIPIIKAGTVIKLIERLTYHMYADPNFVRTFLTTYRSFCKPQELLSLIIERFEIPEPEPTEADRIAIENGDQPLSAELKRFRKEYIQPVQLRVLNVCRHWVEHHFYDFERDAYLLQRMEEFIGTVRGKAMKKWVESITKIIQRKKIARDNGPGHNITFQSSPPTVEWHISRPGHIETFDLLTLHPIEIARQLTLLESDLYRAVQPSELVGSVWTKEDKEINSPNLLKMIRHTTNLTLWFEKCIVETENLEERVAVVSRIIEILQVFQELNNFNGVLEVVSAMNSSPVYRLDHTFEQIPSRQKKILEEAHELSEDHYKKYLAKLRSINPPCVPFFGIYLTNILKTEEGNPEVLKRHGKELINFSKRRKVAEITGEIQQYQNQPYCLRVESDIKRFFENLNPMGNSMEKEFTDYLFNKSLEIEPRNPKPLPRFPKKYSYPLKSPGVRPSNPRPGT

Row | SMILES | IC50
1 | C=CC(=O)N1CCN(C(=O)c2c(C)nc(CNc3n[nH]c4cc(Cl)c(C(C)(C)C)cc34)n2C)CC1 [US12065430, Example 50] | 4.28 µM
2 | C=CC(=O)N1C[C@@H](CF)[C@@H](NC(=O)c2c(C)nc(CNc3n[nH]c4cc(Cl)c(C(C)(C)C)cc34)n2C)C1 [US12065430, Example 66] | 0.02 µM
3 | C=CC(=O)N1CC(NC(=O)c2c(Cl)nc(CNc3n[nH]c4cc(Cl)c(C(C)(C)C)cc34)n2C2CCCCC2)C1 [US12065430, Example 109] | 0.023 µM
4 | C=CC(=O)N1CC(NC(=O)c2c(Cl)nc(CNc3n[nH]c4cc(Cl)c(C(C)(C)C)cc34)n2C2CCOCC2)C1 [US12065430, Example 101] | 0.007 µM
5 | C=CC(=O)N1CC(NC(=O)c2cnc(CNc3n[nH]c4cc(Cl)c(C)cc34)n2C)C1 [US12065430, Example 37] | 5.48 µM
6 | C=CC(=O)N1CC(NC(=O)c2c(C)nc(CNc3n[nH]c4cc(Cl)c(C(C)(C)C)cc34)n2CCCC)C1 [US12065430, Example 18] | 0.012 µM
7 | C=CC(=O)N1CC(NC(=O)c2c(Cl)nc(CNc3n[nH]c4cc(Cl)c(C(C)(C)C)cc34)n2[C@@H]2C[C@@H](C)N(CC(F)F)C2)C1 [US12065430, Example 126] | 0.004 µM
8 | C=CCN1CC[C@@H](n2c(CNc3n[nH]c4cc(Cl)c(C(C)(C)C)cc34)nc(Cl)c2C(=O)NC2CN(C(=O)C=C)C2)C1 [US12065430, Example 123] | 0.009 µM
9 | C=CC(=O)N1CC(NC(=O)c2c(Cl)nc(CNc3n[nH]c4cc(Cl)c(C(C)(C)C)cc34)n2[C@@H]2CCN(Cc3ccccc3)C2)C1 [US12065430, Example 122] | 0.006 µM
10 | C=CC(=O)N1CC(NC(=O)c2c(C)nc(CNc3n[nH]c4cc(Cl)c(C(C)(C)C)cc34)n2C)C(F)(F)C1 (centres undefined) [US12065430, Example 53] | 0.042 µM
11 | C=CC(=O)N1CC(NC(=O)c2c(Cl)nc(CNc3n[nH]c4cc(Cl)c(C(C)(C)C)cc34)n2C2CCN(C)CC2)C1 [US12065430, Example 103] | 0.005 µM
12 | C=CC(=O)N1CC(NC(=O)c2c(Cl)nc(CNc3n[nH]c4cc(Cl)c(C(C)(C)C)cc34)n2CC2CCCC2)C1 [US12065430, Example 110] | 0.009 µM
13 | C=CC(=O)N1CC(NC(=O)c2c(Cl)nc(CNc3n[nH]c4cc(Cl)c(C(C)(C)C)cc34)n2[C@@H]2CCN(c3ccccn3)C2)C1 [US12065430, Example 124] | 0.006 µM
14 | C=CC(=O)N1CC(NC(=O)c2c(Cl)nc(CNc3n[nH]c4cc(Cl)c(C(C)(C)C)cc34)n2C2CN(C(=O)OC(C)(C)C)C2)C1 [US12065430, Example 106] | 0.008 µM
15 | C=CC(=O)N1CC(NC(=O)c2c(Cl)nc(CNc3n[nH]c4cc(Cl)c(C(C)(C)C)cc34)n2C2CCCOC2)C1 (centres undefined) [US12065430, Example 104] | 0.009 µM
16 | C=CC(=O)N1C[C@H](NC(=O)c2c(C)nc(CNc3n[nH]c4cc(Cl)c(C(C)(C)C)cc34)n2C)C2(CC2)C1 [US12065430, Example 54] | 0.301 µM
17 | C=CC(=O)N1CC(NC(=O)c2c(C)nc(CNc3n[nH]c4cc(Cl)c(C(C)(C)C)cc34)n2CC(F)(F)F)C1 [US12065430, Example 22] | 0.055 µM

Row | SMILES | IC50
18 | C=CC(=O)N1CC(NC(=O)c2c(Cl)nc(CNc3n[nH]c4cc(Cl)c(C(C)(C)C)cc34)n2[C@H]2C[C@H](C)CC[C@H]2C(C)C)C1 [US12065430, Example 111] | 0.015 µM
19 | C=CC(=O)N1C[C@H](NC(=O)c2c(F)nc(CNc3n[nH]c4cc(Cl)c(C(C)(C)C)cc34)n2C)[C@@H](F)C1 [US12065430, Example 75] | 0.016 µM
20 | C=CC(=O)N1CC(NC(=O)c2c(Cl)nc(CNc3n[nH]c4cc(Cl)c(C(C)(C)C)cc34)n2[C@@H]2CCN(CC(F)F)[C@H]2C)C1 [US12065430, Example 125] | 0.013 µM
21 | C=CC(=O)N1CC(NC(=O)c2c(Cl)nc(CNc3n[nH]c4cc(Cl)c(C(C)(C)C)cc34)n2-c2ccccn2)C1 [US12065430, Example 94] | 0.118 µM
22 | C=CC(=O)N1CC(NC(=O)c2c(C)nc(CNc3n[nH]c4cc(Cl)c(C(C)(C)C)cc34)n2C(C)(C)C)C1 [US12065430, Example 24] | 0.035 µM
23 | Cc1nc(CNc2n[nH]c3cc(Cl)c(C(C)(C)C)cc23)n(C(C)C)c1C(=O)NC1CN(C(=O)/C=C\Cl)C1 [US12065430, Example 83] | 2.35 µM
24 | C=CC(=O)N1CC(NC(=O)c2c(F)nc(CNc3n[nH]c4cc(Cl)c(C(C)(C)C)cc34)n2C(C)C)C1 [US12065430, Example 34] | 0.013 µM
25 | C=CC(=O)N1CC(NC(=O)c2c(Cl)nc(CNc3n[nH]c4cc(Cl)c(C5(C(F)(F)F)CC5)cc34)n2C(C)C)C1 [US12065430, Example 44] | 0.18 µM
26 | C=CC(=O)N1CC[C@@H](N(C)C(=O)c2cnc(CNc3n[nH]c4cc(Cl)c(C(C)(C)C)cc34)n2C)C1 [US12065430, Example 77] | 0.142 µM
27 | C=CC(=O)N1CCC(NC(=O)c2c(C)nc(CNc3n[nH]c4cc(Cl)c(C(C)(C)C)cc34)n2C)CC1 [US12065430, Example 47] | 1.73 µM
28 | C=CC(=O)N1CC(NC(=O)c2c(Cl)nc(CNc3n[nH]c4cc(Cl)c(C(=C)C(F)(F)F)cc34)n2C(C)C)C1 [US12065430, Example 43] | 0.809 µM
29 | C=CC(=O)N1CC(NC(=O)c2c(Br)nc(CNc3n[nH]c4cc(Cl)c(C(C)(C)C)cc34)n2C)C1 [US12065430, Example 27] | 0.008 µM
30 | C=CC(=O)N1C[C@@H](C)[C@@H](NC(=O)c2c(F)nc(CNc3n[nH]c4cc(Cl)c(C(C)(C)C)cc34)n2C)C1 [US12065430, Example 74] | 0.036 µM
31 | C=CC(=O)N1CC(NC(=O)c2cnc(CNc3n[nH]c4cc(Cl)c(CC)cc34)n2C)C1 [US12065430, Example 39] | 0.87 µM
32 | C=CC(=O)N1CC[C@@H](NC(=O)c2c(Cl)nc(CNc3n[nH]c4cc(Cl)c(C(C)(C)C)cc34)n2C)C1 [US12065430, Example 73] | 0.052 µM
33 | C=CC(=O)N1CC(NC(=O)c2c(C)nc(CNc3n[nH]c4cc(Cl)c(C(C)(C)C)cc34)n2CC)C1 [US12065430, Example 12] | 0.016 µM
34 | C=CC(=O)N1C[C@@H](C)[C@@H](NC(=O)c2c(Cl)nc(CNc3n[nH]c4cc(Cl)c(C(C)(C)C)cc34)n2C)C1 [US12065430, Example 78] | 0.02 µM

Continued, values first:

Row | IC50 | SMILES
35 | 0.024 µM | C=CC(=O)N1CC(NC(=O)c2c(C)nc(CNc3n[nH]c4cc(Cl)c(C(C)(C)C)cc34)n2CCOC)C1 [US12065430, Example 14]
36 | 0.025 µM | C=CC(=O)N1CC(NC(=O)c2c(C)nc(CNc3n[nH]c4cc(Cl)c(C(C)(C)C)cc34)n2CCN(C)C)C1 [US12065430, Example 16]
37 | 0.006 µM | C=CC(=O)N1CC(NC(=O)c2c(Cl)nc(CNc3n[nH]c4cc(Cl)c(C(C)(C)C)cc34)n2CCOC)C1 [US12065430, Example 90]
38 | 2.17 µM | C=CC(=O)N1CC(NC(=O)c2cnc(CNc3n[nH]c4cc(Cl)c(C=C)cc34)n2C)C1 [US12065430, Example 38]
39 | 0.208 µM | C=CC(=O)N1CC(N(C)C(=O)c2c(C)nc(CNc3n[nH]c4cc(Cl)c(C(C)(C)C)cc34)n2C)C1 [US12065430, Example 49]
40 | 0.01 µM | C=CC(=O)N1CC(NC(=O)c2c(C(F)F)nc(CNc3n[nH]c4cc(Cl)c(C(C)(C)C)cc34)n2C2CCN(CC)C2)C1 (centres undefined) [US12065430, Example 92]
41 | 0.006 µM | C=CC(=O)N1CC(NC(=O)c2c(Cl)nc(CNc3n[nH]c4cc(Cl)c(C(C)(C)C)cc34)n2[C@@H]2CCN(C3CC3)C2)C1 [US12065430, Example 120]
42 | 2.63 µM | C/C=C/C(=O)N1CC(NC(=O)c2c(C)nc(CNc3n[nH]c4cc(Cl)c(C(C)(C)C)cc34)n2C(C)C)C1 [US12065430, Example 81]
43 | 0.007 µM | C=CC(=O)N1CC(NC(=O)c2c(C(F)F)nc(CNc3n[nH]c4cc(Cl)c(C(C)(C)C)cc34)n2C2CCN(C)C2)C1 (centres undefined) [US12065430, Example 91]
44 | 0.007 µM | C=CC(=O)N1CC(NC(=O)c2c(Cl)nc(CNc3n[nH]c4cc(Cl)c(C(C)(C)C)cc34)n2C2CC=CC2)C1 [US12065430, Example 98]
45 | 0.007 µM | C=CC(=O)N1CC(NC(=O)c2c(Cl)nc(CNc3n[nH]c4cc(Cl)c(C(C)(C)C)cc34)n2CC(C)C)C1 [US12065430, Example 89]
46 | 0.058 µM | C=CS(=O)(=O)N1CC(NC(=O)c2c(C)nc(CNc3n[nH]c4cc(Cl)c(C(C)(C)C)cc34)n2C(C)C)C1 [US12065430, Example 86]
47 | 0.129 µM | C=CC(=O)N1CC(NC(=O)c2c(C)c(CNc3n[nH]c4cc(Cl)c(C(C)(C)C)cc34)nn2C)C1 [US12065430, Example 10]
48 | 0.791 µM | C=CC(=O)N1CC(NC(=O)c2c(Cl)c(CNc3n[nH]c4cc(Cl)c(C(C)(C)C)cc34)nn2C)C1 [US12065430, Example 6]
49 | 0.006 µM | C=CC(=O)N1CC(NC(=O)c2c(Cl)nc(CNc3n[nH]c4cc(Cl)c(C(C)(C)C)cc34)n2C)C1 [US12065430, Example 29]
